# Columns and labels:
# Format in all cases: ADME, organism-based
# Conditions in all cases: in vivo, po
# [1] = Tmax in Balb/c mouse at 10 mg/kg administered orally measured up to 24 hrs by LC-MS/MS analysis
# [2] = Cmax in Balb/c mouse at 10 mg/kg administered orally measured up to 24 hrs by LC-MS/MS analysis; design: dose 10 mg/kg, route oral
# [3] = AUC (0 to 24 hrs) in Balb/c mouse at 10 mg/kg administered orally measured up to 24 hrs by LC-MS/MS analysis; design: dose 10 mg/kg, time < 24 hr, route oral
# [4] = Half life in Balb/c mouse at 10 mg/kg administered orally measured up to 24 hrs by LC-MS/MS analysis
# [5] = Cmax in Sprague-Dawley rat at 10 mg/kg administered orally measured up to 24 hrs by LC-MS/MS analysis; design: dose 10 mg/kg, route oral
# [6] = AUC (0 to infinity) in Sprague-Dawley rat at 10 mg/kg administered orally measured up to 24 hrs by LC-MS/MS analysis; design: dose 10 mg/kg, route oral, time infinity
# [7] = Mean residence time in Sprague-Dawley rat 10 mg/kg administered orally measured up to 24 hrs by LC-MS/MS analysis
# [8] = Half life in Sprague-Dawley rat 10 mg/kg administered orally measured up to 24 hrs by LC-MS/MS analysis
Structure (SMILES),Tmax [1],Cmax [2],AUC(0-t) at 24 h [3],half-life [4],Cmax [5],AUC(0-inf) [6],MRT [7],half-life [8]
CNC(=O)c1ccc(N2C(=S)N(c3cnc(C#N)c(C(F)(F)F)c3)C(=O)C23CCC3)cc1F [APALUTAMIDE],6 h,3320 ng/mL,61600 ng·h/mL,5.9 h,946 ng/mL,14800 ng·h/mL,10.7 h,7.4 h
[2H]C([2H])([2H])NC(=O)c1ccc(N2C(=S)N(c3cnc(C#N)c(C(F)(F)F)c3)C(=O)C23CCC3)cc1F,4 h,4480 ng/mL,87800 ng·h/mL,32.3 h,1700 ng/mL,28700 ng·h/mL,13 h,8.9 h
[2H]C1([2H])CC([2H])([2H])C12C(=O)N(c1cnc(C#N)c(C(F)(F)F)c1)C(=S)N2c1ccc(C(=O)NC)c(F)c1,6 h,2170 ng/mL,41100 ng·h/mL,32.3 h,–,–,–,–

# Continued, values first:
Tmax [1],Cmax [2],AUC(0-t) at 24 h [3],half-life [4],Cmax [5],AUC(0-inf) [6],MRT [7],half-life [8],Structure (SMILES)
6 h,3480 ng/mL,63800 ng·h/mL,6.6 h,–,–,–,–,[2H]c1cc(C(=O)NC)c(F)c([2H])c1N1C(=S)N(c2cnc(C#N)c(C(F)(F)F)c2)C(=O)C12CCC2
4 h,3940 ng/mL,80600 ng·h/mL,54.9 h,–,–,–,–,[2H]c1cc(C(=O)NC([2H])([2H])[2H])c(F)c([2H])c1N1C(=S)N(c2cnc(C#N)c(C(F)(F)F)c2)C(=O)C12CCC2

# Reference: ChEMBL document CHEMBL4020755, “Design, synthesis, and biological evaluation of deuterated apalutamide with improved pharmacokinetic profiles” (Bioorg Med Chem Lett, 2017)
